Values of other authors, collected in US20030171388A1, “Cosmetic or dermatological cream composition, the preparation and the use thereof” (priority 2003, published 2003).

Tested on: liver cell cultures

Compound: C[N+](C)(C)C[C@H](O)CC(=O)[O-] [L-carnitine, 3-carboxy-2-hydroxy-N,N,N-trimethyl-1-propanamium-hydroxide]
- effect on the membrane potential of the mitochondrion: did not cause a loss in the membrane potential of the mitochondrion
- prevention of cell deaths: able to prevent cell deaths
